Experimental data: PubChem BioAssay AID248 (DTP/NCI, 2004)
Values joined by “and” are separate entries in the source; they are usually repeats but may differ in a detail not shown here. Identical values can stand only once. Toxic doses and inconclusive results are not listed. Cut-off read from the data, not from the text of the source: active = T/C of 150% or more; inactive = T/C below 125%.

Test system: L1210 leukemia ip in BDF1 mice, survival T/C
Assay: NCI In Vivo Anticancer Drug Screen. Data for tumor model L1210 Leukemia (intraperitoneal) in B6D2F1 (BDF1) mice
Details: endpoint: mean survival time, higher = longer survival
Procedure, shortened: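 Each compound was tested against a transplantable tumor grown in mice. The endpoint was survival, with treated animals benchmarked against vehicle controls as a simple ratio.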

[1] = dose: 100.0 mg/kg/injection, schedule: Q04DX003 (ip), vehicle: saline with Tween-80
[2] = dose: 100.0 mg/kg/injection, schedule: Q04DX003 (ip), vehicle: Klucel (hydroxypropylcellulose) (HPC)
[3] = dose: 200.0 mg/kg/injection, schedule: Q04DX003 (ip), vehicle: Klucel (hydroxypropylcellulose) (HPC)
[4] = dose: 100.0 mg/kg/injection, schedule: Q04DX002 (ip), vehicle: Klucel (hydroxypropylcellulose) (HPC)
[5] = dose: 200.0 mg/kg/injection, schedule: Q04DX002 (ip), vehicle: Klucel (hydroxypropylcellulose) (HPC)
[6] = dose: 400.0 mg/kg/injection, schedule: Q04DX002 (ip), vehicle: Klucel (hydroxypropylcellulose) (HPC)
[7] = dose: 50.0 mg/kg/injection, schedule: Q01DX009 (ip), vehicle: Klucel (hydroxypropylcellulose) (HPC)
[8] = dose: 100.0 mg/kg/injection, schedule: Q01DX009 (ip), vehicle: Klucel (hydroxypropylcellulose) (HPC)
[9] = dose: 200.0 mg/kg/injection, schedule: Q01DX009 (ip), vehicle: Klucel (hydroxypropylcellulose) (HPC)
[10] = dose: 100.0 mg/kg/injection, schedule: Q01DX001 (ip), vehicle: carboxymethylcellulose (CMC)
[11] = dose: 200.0 mg/kg/injection, schedule: Q01DX001 (ip), vehicle: carboxymethylcellulose (CMC)
[12] = dose: 400.0 mg/kg/injection, schedule: Q01DX001 (ip), vehicle: carboxymethylcellulose (CMC)
[13] = dose: 100.0 mg/kg/injection, schedule: Q04DX003 (ip), vehicle: saline
[14] = dose: 200.0 mg/kg/injection, schedule: Q04DX003 (ip), vehicle: saline
[15] = dose: 400.0 mg/kg/injection, schedule: Q04DX003 (ip), vehicle: saline

Measured: T/C

CC1(C)C[N+](C)(Cc2ccccc2)C1
inactive: [1] 101 % of control

Nc1cc(S(=O)O)c2cccnc2c1O
inactive: dose: 75.0 mg/kg/injection, schedule: Q01DX009 (ip), vehicle: Klucel (hydroxypropylcellulose) (HPC) 88 % of control | [2] 97 % of control | dose: 150.0 mg/kg/injection, schedule: Q01DX009 (ip), vehicle: Klucel (hydroxypropylcellulose) (HPC) 108 % of control | [3] 95 % of control | dose: 300.0 mg/kg/injection, schedule: Q01DX009 (ip), vehicle: Klucel (hydroxypropylcellulose) (HPC) 93 % of control

CC(C)(O)OC1COC(C2CS2)C1O (configuration not stated)
inactive: [4] 94 % of control | [5] 98 % of control | [6] 102 % of control

OCC1C2CCC(C2)C1c1ccccc1 (configuration not stated)
inactive: dose: 9.38 mg/kg/injection, schedule: Q01DX001 (ip), vehicle: saline 103 % of control

Cc1ccc(-n2c(=S)[nH]c3ccc(C)cc3c2=O)cc1
inactive: dose: 25.0 mg/kg/injection, schedule: Q01DX009 (ip), vehicle: saline with Tween-80 87 % of control | [1] 87 % of control

CC[N+](CC)(CC)CCCCCCCCCC[N+](CC)(CC)CC
inactive: dose: 0.19 mg/kg/injection, schedule: Q01DX009 (ip), vehicle: water 100 % of control | dose: 0.39 mg/kg/injection, schedule: Q01DX009 (ip), vehicle: water 95 % of control | dose: 0.78 mg/kg/injection, schedule: Q01DX009 (ip), vehicle: water 90 % of control | dose: 0.78 mg/kg/injection, schedule: Q04DX003 (ip), vehicle: saline 103 % of control

O=C1NC(=O)C(c2ccccc2)(C2CCCC2)N1 (configuration not stated)
inactive: [7] 93 % of control | [8] 98 % of control | [9] 96 % of control

CC(C)([CH2][Sn]([CH2]C(C)(C)c1ccccc1)[CH2]C(C)(C)c1ccccc1)c1ccccc1.CC(C)([CH2][Sn]([CH2]C(C)(C)c1ccccc1)[CH2]C(C)(C)c1ccccc1)c1ccccc1
inactive: dose: 75.0 mg/kg/injection, schedule: Q01DX001 (ip), vehicle: other 101 % of control | dose: 150.0 mg/kg/injection, schedule: Q01DX001 (ip), vehicle: other 106 % of control | dose: 300.0 mg/kg/injection, schedule: Q01DX001 (ip), vehicle: other 94 % of control

O=C1CCCCC1Nc1ccc(Cl)cc1 (configuration not stated)
inactive: [10] 100 % of control | [11] 95 % of control | [12] 95 % of control

OCC(Cc1ccc(Cl)cc1)N1CCCCC1 (configuration not stated)
inactive: [10] 96 % of control | [11] 100 % of control | [12] 89 % of control

CC(C)O/N=C(/N)N=C(N)N
inactive: dose: 100.0 mg/kg/injection, schedule: Q01DX001 (ip), vehicle: other 98 % of control | dose: 200.0 mg/kg/injection, schedule: Q01DX001 (ip), vehicle: other 106 % of control

CCOc1cc(C=Nc2cc(Br)c(OC)c(Br)c2)ccc1N(CCCl)CCCl
inactive: dose: 4.0 mg/kg/injection, schedule: Q01DX009 (ip), vehicle: carboxymethylcellulose (CMC) 106 % of control | dose: 7.0 mg/kg/injection, schedule: Q01DX009 (ip), vehicle: carboxymethylcellulose (CMC) 115 % of control | dose: 8.9 mg/kg/injection, schedule: Q01DX001 (ip), vehicle: carboxymethylcellulose (CMC) 122 % of control | dose: 11.0 mg/kg/injection, schedule: Q01DX009 (ip), vehicle: carboxymethylcellulose (CMC) 109 % of control | dose: 17.0 mg/kg/injection, schedule: Q01DX009 (ip), vehicle: carboxymethylcellulose (CMC) 123 % of control | dose: 133.0 mg/kg/injection, schedule: Q01DX001 (ip), vehicle: carboxymethylcellulose (CMC) 122 % of control

O=C(O)c1cnc(C(=O)O)cn1
inactive: [7] 98 % of control | [8] 87 % of control | [9] 91 % of control

CCN1CCC2CN(C(=O)Nc3ccccc3)CCN2C1=O (configuration not stated)
inactive: [1] 98 % of control | dose: 200.0 mg/kg/injection, schedule: Q04DX003 (ip), vehicle: saline with Tween-80 90 % of control | dose: 400.0 mg/kg/injection, schedule: Q04DX003 (ip), vehicle: saline with Tween-80 87 % of control

CC1=CC(=O)C2COc3c2c1cc1c(C)cc(=O)n(C)c31 (configuration not stated)
inactive: dose: 50.0 mg/kg/injection, schedule: Q04DX003 (ip), vehicle: Klucel (hydroxypropylcellulose) (HPC) 97 % of control | dose: 100.0 mg/kg/injection, schedule: Q01DX001 (ip), vehicle: Klucel (hydroxypropylcellulose) (HPC) 95 % of control | [2] 113 % of control | dose: 200.0 mg/kg/injection, schedule: Q01DX001 (ip), vehicle: Klucel (hydroxypropylcellulose) (HPC) 95 % of control | [3] 97 % of control | dose: 400.0 mg/kg/injection, schedule: Q01DX001 (ip), vehicle: Klucel (hydroxypropylcellulose) (HPC) 97 % of control

CC(=O)CC(=O)Nc1ccc(C(=O)O)c(O)c1
inactive: [8] 93 % of control | [9] 87 % of control | dose: 400.0 mg/kg/injection, schedule: Q01DX009 (ip), vehicle: Klucel (hydroxypropylcellulose) (HPC) 93 % of control

NC(C(=O)O)c1ccco1 (configuration not stated)
inactive: [2] 103 % of control | [3] 105 % of control | dose: 400.0 mg/kg/injection, schedule: Q04DX003 (ip), vehicle: Klucel (hydroxypropylcellulose) (HPC) 101 % of control

CCOC(=O)C(=O)Nc1ccccc1-c1ccccc1
inactive: [13] 102 % of control | [14] 98 % of control | [15] 101 % of control

CN(C)CCN=Cc1[nH]c(=S)[nH]c(=O)c1CCc1ccccc1
inactive: dose: 100.0 mg/kg/injection, schedule: Q01DX001 (ip), vehicle: saline with Tween-80 93 % of control | dose: 200.0 mg/kg/injection, schedule: Q01DX001 (ip), vehicle: saline with Tween-80 97 % of control | dose: 400.0 mg/kg/injection, schedule: Q01DX001 (ip), vehicle: saline with Tween-80 95 % of control

C=CS(=O)(=O)c1ccc(C)cc1
inactive: dose: 25.0 mg/kg/injection, schedule: Q04DX002 (ip), vehicle: Klucel (hydroxypropylcellulose) (HPC) 104 % of control | dose: 50.0 mg/kg/injection, schedule: Q04DX002 (ip), vehicle: Klucel (hydroxypropylcellulose) (HPC) 110 % of control | [4] 96 % of control and 104 % of control

Nc1cncc([N+](=O)[O-])c1N
inactive: [13] 98 % of control | [14] 96 % of control | [15] 94 % of control

COc1ccc(NC(=O)c2ccc(C(=O)Nc3ccc(OC)cc3)cc2)cc1
inactive: [13] 92 % of control | [14] 97 % of control | [15] 92 % of control

C=CCSC(=S)N(C)C
inactive: dose: 25.0 mg/kg/injection, schedule: Q04DX002 (ip), vehicle: saline 101 % of control | dose: 50.0 mg/kg/injection, schedule: Q04DX002 (ip), vehicle: saline 89 % of control

O=C1OC(=O)C2C1C1CCC2(C2OCCO2)O1 (configuration not stated)
inactive: [4] 93 % of control | [5] 101 % of control | [6] 101 % of control

N=C(N)C1CCCCC1
inactive: dose: 100.0 mg/kg/injection, schedule: Q01DX001 (ip), vehicle: saline 95 % of control | dose: 200.0 mg/kg/injection, schedule: Q01DX001 (ip), vehicle: saline 97 % of control | dose: 400.0 mg/kg/injection, schedule: Q01DX001 (ip), vehicle: saline 100 % of control
